Data published in patent US20200290950A1, “ALKAMIDE COMPOUNDS AND USES THEREOF” (NORTH CAROLINA STATE UNIVERSITY, priority 2017, published 2020).

What was measured:
RBL-2H3 cells [1] = test: LDH cytotoxicity assay; format: cell-based, rat; settings: overnight treatment
Procedure: FIG. 7. A15 is not cytotoxic to RBL-2H3 cells. RBL-2H3 cells were plated and incubated overnight prior to stimulation. Cells were treated overnight with the indicated concentrations of A15 10 μg/mL cycloheximide as a positive control. Supernatants were collected and analyzed for LDH release using the Pierce LDH Cytotoxicity Kit. […] Statistical analysis was performed using a one-way ANOVA with Dunnett's post-hoc test, ***p<0.001.
RBL-2H3 cells were seeded into 96-well plates and incubated overnight prior to treatment with a range of A15 concentrations or 10 μg/mL cycloheximide. Supernatants were collected after 18 hr and analyzed for lactate dehydrogenase (LDH) activity using the commercially available Pierce LDH Cytotoxicity Assay Kit according to the manufacturer's instructions (Thermo Fisher Scientific). Briefly, in a 96-well plate, 50 μL of supernatant were incubated with 50 μL of reaction mixture containing a tetrazolium salt that is reduced to formazan in the presence LDH for 30 min protected from light. 50 μL of stop solution was added, and the absorbance was read at 490 nm with absorbance at 690 nm subtracted to remove background absorbance. LDH release from vehicle treated cells was used to determine spontaneous LDH release. Additionally, lysis buffer was used to determine maximum LDH release.

TRPV1 = target: T1, TRPV1 (Mus musculus, UniProt Q704Y3); test: Calcium response of DRG neurons to capsaicin; format: cell-based; settings: cultured DRG neurons, fluorescence microscopy
T1 construct: The receptors TRPA1 and TRPV1 are expressed on neurons; from tissue; host or cells: primary dorsal root ganglion neurons from mice
Source text: FIG. 11. Calcium response from DRG sensory neurons to alkamide of transient receptors. Mustard a TRPA1-receptor agonist activates DRG neurons in gray (A) and capsaicin, an agonist for TRPV1-receptors in the DRG neurons in red (B). Ligand A15 inhibits both TRPA1 and TRPV1 receptors activation in orange; however, 85Y a synthetic ligand only reduces the inhibition of TRPA1 but not TRPV1 receptors in blue. Total number of neurons (n)=135-145; p≤0.05.
Several different model systems were utilized for these experiments. In one model, dorsal root ganglia were obtained from mice and the neurons cultured in vitro. The neurons were then stimulated in the presence/absence of A15 and YM8-85 and the calcium responses monitored by fluorescence microscopy. In the second model, the alkamides were applied to mouse skin in mineral oil. The reactions of these mice to heat, cold, and tactile stimulation was then compared with mice that had not received treatment with A15. […] Alkamides were applied to sensitized animals and then ear swelling and bouts of scratching were monitored.
In vitro DRG neuron responses. […] Neurons were stimulated with mustard (allyl isothiocyanate) (A) an agonist for the receptor TRPA-1 or capsaicin (B) an agonist for the receptor TRPV-1 and calcium responses were measured in individual neurons by fluorescence microscopy. […]

[2] = Paw withdrawal latency to heat, cold and touch after topical administration; format: in vivo; settings: topical in mineral oil on mouse paws
Procedure: FIG. 12. Antinociceptive effect of topical administration of alkamide A15. Measured paw withdrawal latency to Hargreave's (A) cold assay using dry ice (B) and touch using von-Frey (C). Data were analyzed using parametric evaluation (AUC).
(§1) Several different model systems were utilized for these experiments. In one model, dorsal root ganglia were obtained from mice and the neurons cultured in vitro. The neurons were then stimulated in the presence/absence of A15 and YM8-85 and the calcium responses monitored by fluorescence microscopy. In the second model, the alkamides were applied to mouse skin in mineral oil. The reactions of these mice to heat, cold, and tactile stimulation was then compared with mice that had not received treatment with A15. In a third model, mice were sensitized to the chemical compound toluene-2,4-diisocyanate (TDI). TDI is an industrial chemical which causes hypersensitive skin lesions and itching in exposed humans and animals. The physiological response to TDI is complex involving type 2 T lymphocytes, cytokines, mast cells, and neurons. Alkamides were applied to sensitized animals and then ear swelling and bouts of scratching were monitored.
In vivo responses to painful stimuli. A15 was tested with mice to determine whether the in vitro inhibitory responses noted in FIG. 11 are also seen in vivo. A15 was mixed in mineral oil and added to mouse paws prior to stimulation with heat, cold, or touch. […] Sensations of touch are mediated by distinct families of mechanoreceptors which are apparently unaffected by A15.

[3] = TDI-induced scratching bouts (itch); format: in vivo, mouse
Source text: as §1
The effects of A15 on TDI-induced itch. The itch response was also monitored in mice sensitized and treated with TDI. Treated mice were video recorded and the number of scratching bouts quantified by an observer.

RBL-2H3 cells [4] = test: TNF-α ELISA, 18 hrs (Example 3); format: cell-based, rat; settings: 1 μM A23187, 18 hours
Procedure: FIGS. 25A-25B. […] RBL-2H3 cells were plated overnight and stimulated with 1 μM A23187 in the absence or presence of each alkamide for 18 h. Culture supernatants were analyzed for TNF-α levels by ELISA and experiments were performed in triplicate (FIG. 25A). Percent inhibition of TNF-α secretion for each alkamide listed in FIG. 25B. *P<0.05, **P<0.01, ***P<0.001, one-way ANOVA with Dunnett's post hoc test compared to vehicle (FIG. 25A) or A15 (FIG. 25B).
RBL-2H3 cells (1.0×10^5 cells) were incubated overnight in a 24 well plate at 37° C. with 5% CO2. Cells were washed with 1×PBS and stimulated with 1 μM A23187 for 18 hrs in the absence or presence of each compound. The cells were centrifuged (1200×g, 5 min) and the supernatants were collected. The concentration of TNF-α in the supernatants were determined using the TNF-α ELISA kit.

T1 sequence (Q704Y3 whole entry): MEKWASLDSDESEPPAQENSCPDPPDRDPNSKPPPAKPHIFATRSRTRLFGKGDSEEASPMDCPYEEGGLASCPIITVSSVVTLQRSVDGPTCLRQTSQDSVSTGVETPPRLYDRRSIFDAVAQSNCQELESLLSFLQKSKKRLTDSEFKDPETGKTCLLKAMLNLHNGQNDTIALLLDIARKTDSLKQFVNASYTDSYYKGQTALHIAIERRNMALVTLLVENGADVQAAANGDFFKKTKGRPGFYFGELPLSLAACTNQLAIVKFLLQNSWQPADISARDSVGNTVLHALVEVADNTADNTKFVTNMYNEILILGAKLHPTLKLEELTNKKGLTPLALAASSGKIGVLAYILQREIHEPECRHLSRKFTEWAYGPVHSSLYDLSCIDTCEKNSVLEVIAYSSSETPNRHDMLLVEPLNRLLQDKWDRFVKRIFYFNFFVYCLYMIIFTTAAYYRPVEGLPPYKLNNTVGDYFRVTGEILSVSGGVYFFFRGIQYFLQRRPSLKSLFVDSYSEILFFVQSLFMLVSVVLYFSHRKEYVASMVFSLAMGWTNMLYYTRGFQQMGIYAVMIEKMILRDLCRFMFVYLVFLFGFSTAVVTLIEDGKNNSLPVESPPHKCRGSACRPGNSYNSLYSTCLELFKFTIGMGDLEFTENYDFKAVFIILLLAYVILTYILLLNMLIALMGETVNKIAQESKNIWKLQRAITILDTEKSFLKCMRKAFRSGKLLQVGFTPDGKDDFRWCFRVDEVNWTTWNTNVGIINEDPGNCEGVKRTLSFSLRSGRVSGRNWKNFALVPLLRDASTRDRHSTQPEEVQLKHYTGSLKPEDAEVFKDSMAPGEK

## CCCCCCC/C=C/C=C/C(=O)NCC(C)C [A15, (2E,4E)-N-Isobutyldodeca-2,4-dienamide]
RBL-2H3 cells [1]
  cytotoxic activity (LDH release): no significant cytotoxic activity
TRPV1
  DRG neuron calcium response to capsaicin (TRPV1 agonist): inhibited
[2]
  paw withdrawal latency to cold (dry ice): increased withdrawal latency
  paw withdrawal latency to heat (Hargreave's): increased withdrawal latency
  touch latency (von-Frey): did not affect touch latency
[3]; higher dose 1.0%
  scratching bouts in TDI treated mice: strong significant inhibition of scratching
[3]; lower dose 0.1%
  scratching bouts in TDI treated mice: strong significant inhibition of scratching
RBL-2H3 cells [4]
  percent inhibition of TNF-α secretion: 79%
